Assays:
CDK4/Cyclin D1 = CDK4/Cyclin D1 (Homo sapiens (Human), UniProt P11802); assay: TR-FRET kinase inhibition assay, CDK4/Cyclin D1; format: biochemical; conditions: 1 mM ATP, 0.15 μM Rb (Ser780)-biotin substrate, read-out: CDK4D1 IC50
Procedure: Compounds disclosed herein were tested for inhibition of CDK4/Cyclin D1 or CDK6/Cyclin D3 kinase in an assay based on the time-resolved fluorescence-resonance energy transfer (TR-FRET) methodology. […] The kinase was incubated with compound for 60 minutes at room temperature and the reaction was initiated by the addition of ATP and Rb (Ser780)-biotin substrate. After reaction at room temperature for 120 minutes, an equal volume of stop/detection solution was added according to the manufacture's instruction (Cisbio Bioassays). The stop/detection solution contained Streptavidin-XL665 and Anti-pRb (Ser780) mAb-Eu Cryptate in Detection buffer (Cisbio Bioassays). […] The inhibition percentage of CDK4/Cyclin D1 or CDK6/Cyclin D3 kinase activity in presence of increasing concentrations of compounds was calculated based on the ratio of fluorescence at 665 nm to that at 620 nm. The IC50 for each compound was derived from fitting the data to the four-parameter logistic equation by Dotmatics.

CDK6/Cyclin D3 = CDK6/Cyclin D3 (Homo sapiens (Human), UniProt Q00534); assay: TR-FRET kinase inhibition assay, CDK6/Cyclin D3; format: biochemical; conditions: 1 mM ATP, 0.15 μM Rb (Ser780)-biotin substrate, read-out: CDK6D3 IC50
CDK6/Cyclin D3, sequence (Q00534 whole entry): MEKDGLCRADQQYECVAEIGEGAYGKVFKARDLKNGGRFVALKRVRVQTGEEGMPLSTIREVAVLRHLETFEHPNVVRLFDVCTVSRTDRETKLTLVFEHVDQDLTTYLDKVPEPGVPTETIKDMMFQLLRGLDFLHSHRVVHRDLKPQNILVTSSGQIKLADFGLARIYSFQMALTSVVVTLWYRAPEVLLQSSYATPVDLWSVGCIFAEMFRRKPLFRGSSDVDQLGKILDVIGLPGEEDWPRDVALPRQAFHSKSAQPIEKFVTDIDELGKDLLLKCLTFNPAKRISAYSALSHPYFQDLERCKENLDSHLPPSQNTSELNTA
CDK6/Cyclin D3, sequence (P30281 whole entry partner): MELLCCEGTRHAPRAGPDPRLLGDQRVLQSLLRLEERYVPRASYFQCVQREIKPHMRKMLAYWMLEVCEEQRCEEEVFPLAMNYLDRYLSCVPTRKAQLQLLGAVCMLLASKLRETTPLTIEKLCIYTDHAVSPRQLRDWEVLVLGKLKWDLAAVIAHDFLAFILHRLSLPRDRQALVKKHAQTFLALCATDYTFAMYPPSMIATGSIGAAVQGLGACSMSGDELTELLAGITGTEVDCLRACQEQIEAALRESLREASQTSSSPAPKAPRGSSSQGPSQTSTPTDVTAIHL
Procedure: Compounds disclosed herein were tested for inhibition of CDK4/Cyclin D1 or CDK6/Cyclin D3 kinase in an assay based on the time-resolved fluorescence-resonance energy transfer (TR-FRET) methodology. The assay was carried out in 384-well low volume black plates in a reaction mixture containing CDK4/Cyclin D1 or CDK6/Cyclin D3, 1 mM ATP, 0.15 μM Rb (Ser780)-biotin substrate and 0-10 μM compound in buffer containing 50 mM HEPES pH7.0, 0.02% NaN3, 0.01% BSA, 0.1 mM Orthovanadate, 50 mM MgCl2, 1 mM DTT and 0.005% Tween-20. The kinase was incubated with compound for 60 minutes at room temperature and the reaction was initiated by the addition of ATP and Rb (Ser780)-biotin substrate. After reaction at room temperature for 120 minutes, an equal volume of stop/detection solution was added according to the manufacture's instruction (Cisbio Bioassays). The stop/detection solution contained Streptavidin-XL665 and Anti-pRb (Ser780) mAb-Eu Cryptate in Detection buffer (Cisbio Bioassays). Plates were incubated at room temperature for 60 minutes, and the TR-FRET signals (ex337 nm, em665 nm/620 nm) were recorded on a PHERAstar FSX plate reader (BMG Labtech). The inhibition percentage of CDK4/Cyclin D1 or CDK6/Cyclin D3 kinase activity in presence of increasing concentrations of compounds was calculated based on the ratio of fluorescence at 665 nm to that at 620 nm. The IC50 for each compound was derived from fitting the data to the four-parameter logistic equation by Dotmatics.

CDK4/Cyclin D1, sequence (P11802 whole entry): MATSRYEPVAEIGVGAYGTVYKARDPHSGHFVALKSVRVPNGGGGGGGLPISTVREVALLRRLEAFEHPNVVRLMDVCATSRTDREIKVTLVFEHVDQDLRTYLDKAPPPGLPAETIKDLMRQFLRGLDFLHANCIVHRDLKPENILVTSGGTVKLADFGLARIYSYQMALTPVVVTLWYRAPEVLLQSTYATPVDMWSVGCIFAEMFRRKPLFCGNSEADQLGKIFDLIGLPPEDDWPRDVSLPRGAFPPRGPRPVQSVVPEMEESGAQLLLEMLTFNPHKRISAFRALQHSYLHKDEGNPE
CDK4/Cyclin D1, sequence (P24385 whole entry partner): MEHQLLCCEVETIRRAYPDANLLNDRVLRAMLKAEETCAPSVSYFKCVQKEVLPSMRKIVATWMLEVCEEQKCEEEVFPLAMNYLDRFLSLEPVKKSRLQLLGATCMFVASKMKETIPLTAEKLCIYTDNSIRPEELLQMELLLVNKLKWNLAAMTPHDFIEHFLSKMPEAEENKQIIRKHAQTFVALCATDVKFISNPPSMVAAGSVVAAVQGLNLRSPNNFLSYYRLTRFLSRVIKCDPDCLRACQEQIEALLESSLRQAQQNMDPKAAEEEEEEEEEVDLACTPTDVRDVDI

IC50 (CDK4/Cyclin D1) [nM] | IC50 (CDK6/Cyclin D3) [nM] | SMILES
12 | 375 | Cc1c(C2CCN2)n(C(C)C)c2cc(-c3nc(N[C@@H]4CCOC[C@H]4O)ncc3F)ccc2c1=O (stereo partly drawn) [Example 386, 2-(azetidin-2-yl)-7-(5-fluoro-2-(((3S,4R)-3-hydroxytetrahydro-2H-pyran-4-yl)amino)pyrimidin-4-yl)-1-isopropyl-3-methylquinolin-4(1H)-one]
1.6 | 68.8 | Cc1c(CN2CCC[C@@H](O)C2)n(C(C)C)c2cc(-c3nc(N[C@@H]4CCOC[C@H]4O)ncc3F)ccc2c1=O [Example 122, 7-(5-fluoro-2-(((3S,4R)-3-hydroxytetrahydro-2H-pyran-4-yl)amino)pyrimidin-4-yl)-2-(((R)-3-hydroxypiperidin-1-yl)methyl)-1-isopropyl-3-methylquinolin-4(1H)-one]
24 | 744 | CC(C)n1c(CN2CCC(O)CC2)cc(=O)c2ccc(-c3nc(N[C@@H]4CCOC[C@H]4O)ncc3F)cc21 [Example 39, 7-(5-fluoro-2-(((3S,4R)-3-hydroxytetrahydro-2H-pyran-4-yl)amino)pyrimidin-4-yl)-2-((4-hydroxypiperidin-1-yl)methyl)-1-isopropylquinolin-4(1H)-one]
3.8 | 407 | CC(C)n1c(CN2CCC[C@H](C#N)C2)cc(=O)c2ccc(-c3nc(N[C@@H]4CCOC[C@H]4O)ncc3F)cc21 [Example 89, (S)-1-((7-(5-fluoro-2-(((3S,4R)-3-hydroxytetrahydro-2H-pyran-4-yl)amino)pyrimidin-4-yl)-1-isopropyl-4-oxo-1,4-dihydroquinolin-2-yl)methyl)piperidine-3-carbonitrile]
7 | 238 | CC(C)n1c(CN2CCC[C@H](O)C2)cc(=O)c2ccc(-c3nc(N[C@@H]4CCOC[C@H]4O)ncc3F)cc21 [Example 56, 7-(5-fluoro-2-(((3S,4R)-3-hydroxytetrahydro-2H-pyran-4-yl)amino)pyrimidin-4-yl)-2-(((S)-3-hydroxypiperidin-1-yl)methyl)-1-isopropylquinolin-4(1H)-one]
9.3 | 567 | Cc1c(CNC(C)C)n(C(C)C)c2cc(-c3nc(N[C@@H]4CCOC[C@H]4O)ncc3F)ccc2c1=O [Example 110, 7-(5-fluoro-2-(((3S,4R)-3-hydroxytetrahydro-2H-pyran-4-yl)amino)pyrimidin-4-yl)-1-isopropyl-2-((isopropylamino)methyl)-3-methylquinolin-4(1H)-one]
8.7 | 296 | CC(C)n1c(CN2[C@@H](C)COC[C@@H]2C)cc(=O)c2ccc(-c3nc(N[C@@H]4CCOC[C@H]4O)ncc3F)cc21 [Example 93, 2-(((3S,5S)-3,5-dimethylmorpholino)methyl)-7-(5-fluoro-2-(((3S,4R)-3-hydroxytetrahydro-2H-pyran-4-yl)amino)pyrimidin-4-yl)-1-isopropylquinolin-4(1H)-one]
16 | 688 | CC(=O)NCc1cc(=O)c2ccc(-c3nc(N[C@@H]4CCOC[C@H]4O)ncc3F)cc2n1C(C)C [Example 50, N-((7-(5-fluoro-2-(((3S,4R)-3-hydroxytetrahydro-2H-pyran-4-yl)amino)pyrimidin-4-yl)-1-isopropyl-4-oxo-1,4-dihydroquinolin-2-yl)methyl)acetamide]
2.7 | 140 | Cc1c(CN2[C@H](C)COC[C@H]2C)n(C(C)C)c2cc(-c3nc(N[C@@H]4CCOC[C@H]4O)ncc3F)ccc2c1=O [Example 71, 2-(((3R,5R)-3,5-dimethylmorpholino)methyl)-7-(5-fluoro-2-(((3S,4R)-3-hydroxytetrahydro-2H-pyran-4-yl)amino)pyrimidin-4-yl)-1-isopropyl-3-methylquinolin-4(1H)-one]
24 | 139 | CC(C)n1c(CN2CCC[C@@]3(CCNC3=O)C2)cc(=O)c2ccc(-c3nc(N[C@@H]4CCOC[C@H]4O)ncc3F)cc21 [Example 104, (R)-7-((7-(5-fluoro-2-(((3S,4R)-3-hydroxytetrahydro-2H-pyran-4-yl)amino)pyrimidin-4-yl)-1-isopropyl-4-oxo-1,4-dihydroquinolin-2-yl)methyl)-2,7-diazaspiro[4.5]decan-1-one]
40 | 640 | CC(C)n1c(CN2CC[C@@H](F)C2)cc(=O)c2cc(F)c(-c3nc(N[C@@H]4CCOC[C@H]4O)ncc3F)cc21 [Example 114, 6-fluoro-7-(5-fluoro-2-(((3S,4R)-3-hydroxytetrahydro-2H-pyran-4-yl)amino)pyrimidin-4-yl)-2-(((R)-3-fluoropyrrolidin-1-yl)methyl)-1-isopropylquinolin-4(1H)-one]
64 | 2050 | CC(C)n1c(CN2CCC(C)(C)CC2)cc(=O)c2ccc(-c3nc(N[C@@H]4CCOC[C@H]4O)ncc3F)cc21 [Example 97, 2-((4,4-dimethylpiperidin-1-yl)methyl)-7-(5-fluoro-2-(((3S,4R)-3-hydroxytetrahydro-2H-pyran-4-yl)amino)pyrimidin-4-yl)-1-isopropylquinolin-4(1H)-one]
6.2 | 211 | Cc1c(CNC2CC2)n(C(C)C)c2cc(-c3nc(N[C@@H]4CCOC[C@H]4O)ncc3F)ccc2c1=O [Example 109, 2-((cyclopropylamino)methyl)-7-(5-fluoro-2-(((3S,4R)-3-hydroxytetrahydro-2H-pyran-4-yl)amino)pyrimidin-4-yl)-1-isopropyl-3-methylquinolin-4(1H)-one]
19 | 760 | CC(C)n1c(CN2CCCC2)cc(=O)c2ccc(-c3nc(N[C@@H]4CCOC[C@H]4O)ncc3F)cc21 [Example 100, 7-(5-fluoro-2-(((3S,4R)-3-hydroxytetrahydro-2H-pyran-4-yl)amino)pyrimidin-4-yl)-1-isopropyl-2-(pyrrolidin-1-ylmethyl)quinolin-4(1H)-one]
4.1 | 131 | Cc1c(CN2CC[C@@H](F)C2)n(C(C)C)c2cc(-c3nc(N[C@@H]4CCOC[C@H]4O)ncc3F)ccc2c1=O [Example 92, 7-(5-fluoro-2-(((3S,4R)-3-hydroxytetrahydro-2H-pyran-4-yl)amino)pyrimidin-4-yl)-2-(((R)-3-fluoropyrrolidin-1-yl)methyl)-1-isopropyl-3-methylquinolin-4(1H)-one]
57 | 553 | CNC(=O)c1cc(=O)c2c(Cl)cc(-c3nc(N[C@@H]4CCOC[C@H]4O)ncc3F)cc2n1C(C)C [Example 36, 5-chloro-7-(5-fluoro-2-(((3S,4R)-3-hydroxytetrahydro-2H-pyran-4-yl)amino)pyrimidin-4-yl)-1-isopropyl-N-methyl-4-oxo-1,4-dihydroquinoline-2-carboxamide]
14 | 392 | Cc1c(CN(C)C)n(C(C)C)c2cc(-c3nc(N[C@@H]4CCOC[C@H]4O)ncc3F)ccc2c1=O [Example 108, 2-((dimethylamino)methyl)-7-(5-fluoro-2-(((3S,4R)-3-hydroxytetrahydro-2H-pyran-4-yl)amino)pyrimidin-4-yl)-1-isopropyl-3-methylquinolin-4(1H)-one]
9.1 | 273 | Cc1c(CO)n(C(C)C)c2cc(-c3nc(N[C@@H]4CCOC[C@H]4O)ncc3F)ccc2c1=O [Example 119, 7-(5-fluoro-2-(((3S,4R)-3-hydroxytetrahydro-2H-pyran-4-yl)amino)pyrimidin-4-yl)-2-(hydroxymethyl)-1-isopropyl-3-methylquinolin-4(1H)-one]
